SMILES strings stand for the structures. Counter-ions that a name gives are not always drawn. Like-named read-outs stand apart in the source and are kept apart here.

Series [1] in a line: In vitro metabolic stability: disappearance half-life in human liver microsomes (HLM/37). Type of series: in vitro ADME. The settings on record: human liver microsomes HLM/37 (0.5µM cytochrome P450), test compound 1µM, 37°C, NADPH, 60 minutes. As for the experimental part:
The in vitro metabolic stability of the compounds of the formula (I) and their salts can be tested by incubating samples for 1 hour at 37°C in the presence of a "moderate activity" (re. concentrations of cytochrome p450 enzymes present) human liver microsomal preparation (prepared from human liver homogenates). The samples were analysed by HPLC at regular intervals during this one hour period and the half-life (t½) determined (in minutes).
The metabolic stability of the compounds was determined in vitro by the method described on page 11 according to the following experimental protocol.
Transplant-quality human liver tissue was obtained from the International Institute for the Advancement of Medicine (Exton, PA). The donors ranged in age from 26 to 65 years old and included 3 males and 3 females. Hepatic microsomes were prepared from individual human livers by the process of differential centrifugation. Briefly, the liver tissue was homogenised in 50mM Tris HCI (pH 7.4) containing 250mM sucrose and then centrifuged at 9,000G for 20 minutes to remove the cell debris and nuclear fraction. The supernatant layer was removed and further centrifuged at 105,000G for 60 minutes to pellet the microsomal fraction. […] The cytochrome P450 content was determined using the method of Omura, T., Sato, R., J. Biol. Chem., 239, 2379-2385 (1964) and the protein concentration was determined using the method of Lowry et al., J. Biol. Chem., 193, 265-275 (1951), with bovine serum albumin as the protein standard.
The metabolic activities of the 6 major drug metabolising cytochrome P450 enzymes were determined for HLM/37 and compared to values obtained from a bank of individual human livers (n = 19). […]
Aliquots (100µl) were removed from the incubation at 0, 3, 5, 10, 15, 20, 30, 45 and 60 minutes after the addition of NADPH. […] After centrifugation 150µl aliquots were removed and 120µl of each of these analysed by HPLC on a Hypersil HS C18 5µ column (50x4.6mm) with a mobile phase of methanol:water (90:10, by volume) containing 2mM ammonium acetate. […]
In general terms: Liver microsomes are a subcellular fraction often used to study metabolism.

The target in a further series is T1, NK3 receptor (Cavia porcellus, UniProt P30098).
T1 construct: membranes from guinea pig cortex; from tissue; host or cells: guinea pig cortex membranes
T1 sequence (P30098 1-440): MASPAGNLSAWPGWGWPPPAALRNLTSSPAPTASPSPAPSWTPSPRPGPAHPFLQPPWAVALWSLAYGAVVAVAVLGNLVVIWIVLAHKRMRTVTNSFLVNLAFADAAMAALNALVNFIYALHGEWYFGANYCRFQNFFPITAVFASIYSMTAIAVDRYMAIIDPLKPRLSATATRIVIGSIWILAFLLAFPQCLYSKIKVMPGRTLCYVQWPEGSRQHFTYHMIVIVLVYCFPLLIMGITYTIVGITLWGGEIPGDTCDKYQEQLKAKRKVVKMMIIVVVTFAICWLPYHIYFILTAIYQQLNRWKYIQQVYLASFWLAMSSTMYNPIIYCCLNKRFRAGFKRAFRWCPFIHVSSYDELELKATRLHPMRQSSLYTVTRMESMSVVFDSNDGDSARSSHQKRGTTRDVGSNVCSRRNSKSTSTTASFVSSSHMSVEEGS
Briefly: NK3 receptor affinity: inhibition of [3H]-senktide binding to guinea pig cortex membranes. The procedure: The compounds of the formula (I) and their salts can be tested for NK3 receptor affinity, in vitro, by testing their ability to inhibit [^3H]-senktide binding to membranes from guinea pig cortex using the method of Guard, et al, Br.J.Pharmacol., 99, 767-773 (1990).
NK3 receptor affinity was tested, in vitro, by the method described on pages 10 and 11 by testing the ability to inhibit [^3H]-senktide binding to membranes from guinea pig cortex using the method of Guard, et al, Br.J.Pharmacol., 99, 767-773 (1990). The pKi was then determined.
(§1) The "pKi" measurement is the negative logarithm of the molar affinity of the test compound for the receptor as determined in radioligand binding assays using standard protocols. A 1.0 log. unit difference in either the NK2 or NK3 receptor affinity figures corresponds to a 10-fold activity difference.

For another series, the target named is T2, human NK2 receptor (Homo sapiens, UniProt P21452).
T2 sequence (P21452 1-398): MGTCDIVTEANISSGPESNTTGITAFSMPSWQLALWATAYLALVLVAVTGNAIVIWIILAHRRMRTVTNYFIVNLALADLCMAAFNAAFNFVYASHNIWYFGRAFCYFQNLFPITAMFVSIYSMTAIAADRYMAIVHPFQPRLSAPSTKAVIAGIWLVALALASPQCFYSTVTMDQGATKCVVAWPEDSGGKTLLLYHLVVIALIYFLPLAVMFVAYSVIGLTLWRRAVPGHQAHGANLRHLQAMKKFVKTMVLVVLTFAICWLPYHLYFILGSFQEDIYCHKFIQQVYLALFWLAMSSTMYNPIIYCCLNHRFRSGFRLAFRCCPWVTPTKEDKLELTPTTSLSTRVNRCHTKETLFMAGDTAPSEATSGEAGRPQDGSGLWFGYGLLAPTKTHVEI
The experiment in a line: Human NK2 receptor affinity: competition with [3H]-NKA for binding to CHO cell membranes. The procedure:
The affinity of the compounds of formula (I) and their salts for the human NK2 receptor can be tested in vitro by testing their ability to compete with [^3H]-NKA (neurokinin A) for binding to membranes prepared from Chinese hamster ovary cells expressing the cloned human NK2 receptor. In this method, washed Chinese hamster ovary cell membranes are prepared as described for the previous method where IM9 cells are used instead. The membranes are incubated (90 min, 25°C) with [^3H]-NKA and with a range of concentrations of the test compound. Non-specific binding was determined in the presence of 10µM NKA.
Human NK2 receptor affinity was tested in vitro by testing the ability to compete with [^3H]-NKA for binding to membranes prepared from Chinese hamster ovary cells expressing the cloned human NK2 receptor using the method set out on page 10. The pKi was then determined.
as §1

The half-life is the time needed for the level to fall by half in the phase considered. In the case of `O=C(c1ccccc1)N1CCC[C@](CCN2CCC(C3CCOCC3)CC2)(c2ccc(Cl)c(Cl)c2)C1` [Example 2], in series [1], the half-life at 1 µM is 28 min. For the same compound, the Ki on NK3 receptor ([3H]-senktide, membranes from guinea pig cortex, read-out: pKi (NK3) (converted)) was 63.1 nM; on human NK2 receptor ([3H]-NKA, membranes from Chinese hamster ovary cells expressing the cloned human NK2 receptor, 90 min, 25°C, read-out: pKi (NK2) (converted)) it was 6.31 nM.

For `CS(=O)(=O)N1CCC(C2CN(CC[C@]3(c4ccc(Cl)c(Cl)c4)CCCN(C(=O)c4ccccc4)C3)C2)CC1` [Example 6, 3(S)-1-Benzoyl-3-(3,4-dichlorophenyl)-3-{2-[3-(1-methylsulphonyl-4-piperidinyl)azetidin-1-yl]ethyl}piperidine hydrochloride], the half-life at 1 µM in series [1] was 53 min. Moreover, the Ki is 39.8 nM on NK3 receptor and 5.01 nM at human NK2 receptor.

Take `CS(=O)(=O)N1CC(C2CCN(CC[C@]3(c4ccc(Cl)c(Cl)c4)CCCN(C(=O)c4ccccc4)C3)CC2)C1` [Example 10, 3(S)-1-Benzoyl-3-(3,4-dichlorophenyl)-3-{2-[4-(1-methylsulfonylazetidin-3-yl)piperidin-1-yl]ethyl}piperidine]: the half-life at 1 µM in series [1] turned out to be 32 min. Besides, the Ki on NK3 receptor is 20 nM; at human NK2 receptor, 5.01 nM.

The values are drawn from patent EP0992493A1, “Substituted benzoylpiperidine derivatives and their use as Neurokinin antagonists” (PFIZER INC., priority 1998, dated 2000).
